Laboratory results reported in US11584714B2 (priority 2018, dated 2023).
Structures can show the parent of a compound that is named as a salt. Where two headings read alike, the source gives them in different places.

Columns and labels:
Assay type in all cases: biochemical
[1] = tested on: Lectin Pathway; experiment: Lectin pathway activation assay in human serum (mannan-coated ELISA, C3c detection); conditions: 1% human serum
[2] = molecular target: human α-thrombin (Homo sapiens (Human), UniProt P00734); experiment: Enzymatic assay for thrombin (Boc-VPR-AMC substrate)
[3] = molecular target: MASP-2 (CCP1-CCP2-SP) (Homo sapiens (Human), UniProt O00187); experiment: biochemical
[4] = molecular target: mMASP-2 (Mus musculus (Mouse), UniProt Q91WP0); experiment: Enzymatic inhibition of mMASP-2; conditions: read-out: mMASP-2 Ki
[5] = MASP-2 inhibition versus thrombin
[6] = selectivity for MASP-2 inhibition versus thrombin

Sequence of MASP-2 (CCP1-CCP2-SP) (O00187 445-686): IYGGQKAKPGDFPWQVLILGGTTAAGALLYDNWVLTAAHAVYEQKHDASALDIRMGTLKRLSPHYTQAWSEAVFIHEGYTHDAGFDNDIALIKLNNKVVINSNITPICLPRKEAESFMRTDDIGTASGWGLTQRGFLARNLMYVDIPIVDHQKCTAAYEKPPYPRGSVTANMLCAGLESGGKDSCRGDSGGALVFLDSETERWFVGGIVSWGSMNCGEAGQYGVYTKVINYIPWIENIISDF
Sequence of mMASP-2 (Q91WP0 20-685): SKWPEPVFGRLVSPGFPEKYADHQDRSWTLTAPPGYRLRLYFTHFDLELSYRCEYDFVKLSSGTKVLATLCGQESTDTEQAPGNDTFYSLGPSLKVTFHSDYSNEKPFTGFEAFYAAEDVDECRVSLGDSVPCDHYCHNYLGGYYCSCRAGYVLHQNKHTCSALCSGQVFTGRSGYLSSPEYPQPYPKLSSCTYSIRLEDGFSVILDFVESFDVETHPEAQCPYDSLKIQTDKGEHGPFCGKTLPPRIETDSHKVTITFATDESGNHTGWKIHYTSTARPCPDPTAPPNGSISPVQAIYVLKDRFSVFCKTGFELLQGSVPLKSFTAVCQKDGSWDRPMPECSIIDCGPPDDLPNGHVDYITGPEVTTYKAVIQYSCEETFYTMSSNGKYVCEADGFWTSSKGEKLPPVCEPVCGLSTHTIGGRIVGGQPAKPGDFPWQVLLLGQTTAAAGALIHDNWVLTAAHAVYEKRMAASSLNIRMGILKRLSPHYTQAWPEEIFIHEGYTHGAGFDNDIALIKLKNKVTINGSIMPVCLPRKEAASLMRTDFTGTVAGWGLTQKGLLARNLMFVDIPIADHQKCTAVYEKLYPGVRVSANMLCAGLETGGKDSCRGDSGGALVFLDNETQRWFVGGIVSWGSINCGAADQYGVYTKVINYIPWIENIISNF

For `C[C@H](NC(=O)[C@H](N)Cc1csc2ccccc12)C(=O)NCc1ccc(C(=N)N)cc1` [compound 1099], the IC50 [1] was 50 to 500 nM, the Ki ([2]; read-out: Thrombin Ki) was < 0.5 µM and the “MASP-2 vs. thrombin selectivity” value [3, 5] was “−− (less than 1.0-fold)”. For the same compound, the Ki ([3]; read-out: MASP-2 Ki) was < 500 nM.

`N=C(N)c1ccc(CNC(=O)[C@@H]2CCN2C(=O)[C@@H](CCCc2ccccc2)NCC(=O)O)cc1` [compound 1131] was tested, and the IC50 [1] was 500 to 5000 nM, the Ki ([2]; read-out: Thrombin Ki) was < 0.5 µM and the “MASP-2 vs. thrombin selectivity” value [3, 5] was “−− (less than 1.0-fold)”. The Ki ([3]; read-out: MASP-2 Ki) was < 500 nM.

`C[C@H](NC(=O)[C@H](N)CCc1ccccc1)C(=O)NCCc1ccc(N)nc1` [compound 1015, (R)-2-Amino-N—((S)-1-((2-(6-aminopyridin-3-yl)ethyl)amino)-1-oxopropan-2-yl)-4-phenylbutanamide Dihydrochloride] was tested, and the IC50 [1] was 5000 to 50000 nM, the Ki [4] was < 25000 nM and the Ki ([2]; read-out: Thrombin Ki) was > 25 µM.

For `N=C(N)c1ccc(CNC(=O)[C@@H]2CCN2C(=O)[C@H](N)c2ccccc2)cc1` [compound 1011, (S)-1-((R)-2-amino-2-phenylacetyl)-N-(4-carbamimidoylbenzyl)azetidine-2-carboxamide], the IC50 [1] was 500 to 5000 nM, the Ki ([2]; read-out: Thrombin Ki) was < 0.5 µM and the “MASP-2 vs. thrombin selectivity” value [3, 5] was “−− (less than 1.0-fold)”. For the same compound, the Ki ([3]; read-out: MASP-2 Ki) was < 500 nM.

In the case of `C[C@H](NC(=O)[C@H]1C[C@H](Cc2ccccc2)CN1)C(=O)NCc1cnc2c(c1)c(Cl)cn2C` [compound 1450, (2R,4S)-4-Benzyl-N-((S)-1-(((3-chloro-1-methyl-1H-pyrrolo[2,3-b]pyridin-5-yl)methyl)amino)-1-oxopropan-2-yl)pyrrolidine-2-carboxamide Dihydrochloride], the IC50 [1] is reported as 50 to 500 nM, the Ki [4] is reported as < 500 nM and the Ki ([3]; read-out: MASP-2 Ki) is reported as < 500 nM. For the same compound, the “MASP-2 vs. thrombin selectivity” value [3, 6] was “**** (≥100-fold)”.

In the case of `Cc1ccc(CSC(C)(C)[C@@H](N)C(=O)N2CC[C@H]2C(=O)NCc2ccc(C(=N)N)cc2)cc1` [compound 1133], the IC50 [1] is reported as 5000 to 50000 nM, the Ki ([2]; read-out: Thrombin Ki) is reported as < 0.5 µM and the “MASP-2 vs. thrombin selectivity” value [3, 5] is reported as “−− (less than 1.0-fold)”. The Ki ([3]; read-out: MASP-2 Ki) was < 500 nM.

For `C[C@H](NC(=O)[C@H]1C[C@@H](c2ccccc2)CCN1)C(=O)NCc1ccc(N)nc1` (stereo in doubt) [compound 1025], the IC50 [1] was 500 to 5000 nM and the Ki ([2]; read-out: Thrombin Ki) was > 25 µM.

With `C[C@H](NC(=O)c1cc(-c2ccccc2)c(-c2ccccc2)[nH]1)C(=O)NCc1ccc(C(=N)N)cc1` [compound 1240, (S)—N-(1-((4-Carbamimidoylbenzyl)amino)-1-oxopropan-2-yl)-4,5-diphenyl-1H-pyrrole-2-carboxamide] the IC50 [1] was 500 to 5000 nM, the Ki ([2]; Thrombin Ki (μM)) was 10 to 25 µM and the Ki [3] was 500 to 2500 nM. The “MASP-2 vs. thrombin selectivity” value [3, 6] was “** (≥5.0 to <25-fold)”.

For `C[C@H](NC(=O)[C@H](N)C1Cc2ccccc2C1)C(=O)NCc1ccc(C(=N)N)cc1` [compound 1035], the IC50 [1] was < 50 nM, the Ki ([2]; read-out: Thrombin Ki) was < 0.5 µM and the “MASP-2 vs. thrombin selectivity” value [3, 5] was “** (5.0 to 25-fold)”. For the same compound, the Ki ([3]; read-out: MASP-2 Ki) was < 500 nM.

For `N=C(N)c1ccc(CNC(=O)[C@@H]2CCN2C(=O)[C@H](N)C2CCCC2)cc1` [compound 1008], the IC50 [1] was 5000 to 50000 nM and the Ki ([2]; read-out: Thrombin Ki) was < 0.5 µM.

`C[C@H](NC(=O)[C@H](N)CCc1ccccc1)C(=O)NCCc1ccnc(N)c1` [compound 1016, (R)-2-Amino-N—((S)-1-((2-(2-aminopyridin-4-yl)ethyl)amino)-1-oxopropan-2-yl)-4-phenylbutanamide Dihydrochloride] was tested, and the IC50 [1] was 5000 to 50000 nM, the Ki [4] was < 25000 nM and the Ki ([2]; read-out: Thrombin Ki) was > 25 µM.

For `Cc1nc(N)ccc1CNC(=O)[C@H](C)NC(=O)[C@H]1C[C@H](Cc2ccc(-c3ccc(F)cc3C#N)cc2)CN1` [compound 1396, (2R,4S)—N—((S)-1-(((6-Amino-2-methylpyridin-3-yl)methyl)amino)-1-oxopropan-2-yl)-4-((2′-cyano-4′-fluoro-[1,1′-biphenyl]-4-yl)methyl)pyrrolidine-2-carboxamide], the IC50 [1] was 500 to 5000 nM, the Ki [4] was < 500 nM and the Ki ([2]; read-out: Thrombin Ki) was > 25 µM.

For `C[C@@H](C(=O)NCc1ccc2c(N)nccc2c1)N(C)C(=O)[C@H](N)CCc1cccc(C(F)(F)F)c1` [compound 1139, (R)-2-Amino-N—((S)-1-(((1-aminoisoquinolin-6-yl)methyl)amino)-1-oxopropan-2-yl)-N-methyl-4-(3-(trifluoromethyl)phenyl)butanamide Dihydrochloride], the IC50 [1] was 5000 to 50000 nM, the Ki [4] was < 10000 nM and the Ki ([3]; read-out: MASP-2 Ki) was < 500 nM.

For `C[C@H](NC(=O)[C@H](N)C1Cc2ccccc2C1)C(=O)NCc1ccc2c(N)nccc2c1` [compound 1088, (S)-2-((R)-2-Amino-2-(2,3-dihydro-1H-inden-2-yl)acetamido)-N-((1-aminoisoquinolin-6-yl)methyl)propanamide Dihydrochloride], the IC50 [1] was 50 to 500 nM, the Ki [4] was < 500 nM and the Ki ([3]; read-out: MASP-2 Ki) was < 500 nM.

In the case of `N=C(N)c1ccc(CNC(=O)[C@@H]2CCN2C(=O)[C@H](NCC(=O)O)C2CCCCC2)cc1O` [compound 1116, ((R)-2-((S)-2-((4-Carbamimidoyl-3-hydroxybenzyl)carbamoyl)azetidin-1-yl)-1-cyclohexyl-2-oxoethyl)glycine], the IC50 [1] is reported as 5000 to 50000 nM and the Ki ([2]; read-out: Thrombin Ki) is reported as < 0.5 µM.

`Nc1nccc2cc(CNC(=O)[C@@H]3CCN3C(=O)[C@H](N)C3CCCCC3)ccc12` [compound 1041, (S)-1-((R)-2-Amino-2-cyclohexylacetyl)-N-((1-aminoisoquinolin-6-yl)methyl)azetidine-2-carboxamide dihydrochloride] was tested, and the IC50 [1] was 5000 to 50000 nM and the Ki ([2]; read-out: Thrombin Ki) was < 0.5 µM.

`N=C(N)c1ccc(CNC(=O)[C@@H]2CCN2C(=O)[C@@H](CC2CCCCC2)NCC(=O)O)cc1` [compound 1114] was tested, and the IC50 [1] was 500 to 5000 nM, the Ki ([2]; read-out: Thrombin Ki) was < 0.5 µM and the “MASP-2 vs. thrombin selectivity” value [3, 5] was “−− (less than 1.0-fold)”. The Ki ([3]; read-out: MASP-2 Ki) was < 500 nM.

For `C[C@H](NC(=O)[C@H](NCC(=O)O)C1CCCCC1)C(=O)NCc1ccc(C(=N)N)cc1` [compound 1094], the IC50 [1] was 5000 to 50000 nM, the Ki ([2]; read-out: Thrombin Ki) was < 0.5 µM and the “MASP-2 vs. thrombin selectivity” value [3, 5] was “−− (less than 1.0-fold)”. For the same compound, the Ki ([3]; read-out: MASP-2 Ki) was < 500 nM.

In the case of `N=C(N)c1ccc(CNC(=O)[C@@H]2CCN2C(=O)[C@H](N)CCCc2ccccc2)cc1` [compound 1069], the IC50 [1] is reported as 500 to 5000 nM, the Ki ([2]; read-out: Thrombin Ki) is reported as < 0.5 µM and the “MASP-2 vs. thrombin selectivity” value [3, 5] is reported as “−− (less than 1.0-fold)”. For the same compound, the Ki ([3]; read-out: MASP-2 Ki) was < 500 nM.

`C[C@H](NC(=O)[C@H](N)CCCc1ccccc1)C(=O)NCc1ccc(C(=N)N)cc1` [compound 1042] was tested, and the IC50 [1] was < 50 nM, the Ki ([2]; read-out: Thrombin Ki) was < 0.5 µM and the “MASP-2 vs. thrombin selectivity” value [3, 5] was “** (5.0 to 25-fold)”. The Ki ([3]; read-out: MASP-2 Ki) was < 500 nM.

For `C[C@H](NC(=O)[C@H](N)C1Cc2ccccc2C1)C(=O)NCc1ccc2nc(N)n(C)c2c1` [compound 1171], the IC50 [1] was > 50000 nM and the Ki ([2]; read-out: Thrombin Ki) was > 25 µM.

With `N=C(N)c1ccc(CNC(=O)[C@@H]2CCN2C(=O)[C@H](NCC(=O)O)C2Cc3ccccc3C2)cc1` [compound 1129] the IC50 [1] was 500 to 5000 nM, the Ki ([2]; read-out: Thrombin Ki) was < 0.5 µM and the “MASP-2 vs. thrombin selectivity” value [3, 5] was “−− (less than 1.0-fold)”. The Ki ([3]; read-out: MASP-2 Ki) was < 500 nM.

For `N=C(N)c1ccc(CNC(=O)[C@@H]2CCCN2C(=O)[C@H](NCC(=O)O)C2CCCCC2)cc1` [compound 1115], the IC50 [1] was 500 to 5000 nM, the Ki ([2]; read-out: Thrombin Ki) was < 0.5 µM and the “MASP-2 vs. thrombin selectivity” value [3, 5] was “−− (less than 1.0-fold)”. For the same compound, the Ki ([3]; read-out: MASP-2 Ki) was < 500 nM.

For `N=C(N)c1ccc(CNC(=O)[C@@H]2CCN2C(=O)[C@H](NCC(=O)O)C2CCCC2)cc1` [compound 1083], the IC50 [1] was 5000 to 50000 nM, the Ki ([2]; read-out: Thrombin Ki) was < 0.5 µM and the “MASP-2 vs. thrombin selectivity” value [3, 5] was “−− (less than 1.0-fold)”. The Ki ([3]; read-out: MASP-2 Ki) was < 500 nM.

In the case of `N=C(N)c1ccc(CNC(=O)[C@@H]2CCCCN2C(=O)[C@H](N)C2CCCCC2)cc1` [compound 1051], the IC50 [1] is reported as 5000 to 50000 nM and the Ki ([2]; read-out: Thrombin Ki) is reported as < 0.5 µM.
